The experiment relates to 5'-biotin NRAS-G4 (RNA, G4) UGUGGGAGGGGCGGGUCUGGG
Description: SPR. The following applies: K+ 100 mM; 10 mM Tris pH 6.9, 0.005% Tween 20, 5% DMSO; Langmuir 1:1 fit.

One may read the KD as a measure of binding affinity in units of concentration. A low value points to a tighter complex. `CN(C)c1ccc(Nc2c3ccc(NC(=O)CCN4CCCC4)cc3nc3cc(NC(=O)CCN4CCCC4)ccc23)cc1` came in with a KD of 79 ± 1.2 nM.
